The text below walks through data of PMC10243363 (ACS chemical neuroscience, 2022).

Structures can show the parent of a compound that is named as a salt. Where two headings read alike, the source gives them in different places.

Series [1] deals with mice. The series can be described thus: Warm-water tail immersion. Type of series: in vivo, mouse. The conditions noted are these: mice.
Series [2] has as its system mice. The series can be described thus: Respiration by whole-body plethysmography. Type of series: in vivo, mouse. As to conditions: 0.1 mg/kg.
The next series deals with rats. The conditions noted are these: rat, in vivo, iv.
The subject of the next series is Caco-2 cell monolayer. The series can be described thus: Caco-2 permeability assay. The conditions noted are these: 10 μM; ± SEM.
Series [3] concerns mice. The series can be described thus: Spontaneous locomotor activity. The conditions noted are these: 30 min.
Series [4] deals with mice. Kind of series: Tolerance and cross tolerance. The conditions noted are these: day 5; 0.1 mg/kg NMF vs 10 mg/kg morphine.
The next series concerns the target DOR (Mus musculus, UniProt P32300). The series can be described thus: [35S]-GTPγS binding assay, mDOR-CHO membrane. Type of series: biochemical.
A further series addresses MOR (Mus musculus, UniProt P42866). Kind of series: [35S]-GTPγS binding assay, mMOR-CHO membrane. Type of series: biochemical. The conditions noted are these: read-out: MOR %Emax.
The subject of series [5] is mice. As to conditions: cited from earlier work.
For series [6] the following is noted: 0.003 mg/kg; cited from earlier work.
The conditions of series [7]: 0.03 mg/kg; cited from earlier work.
Another series relates to monkeys. As to conditions: 0.001 mg/kg; cited from earlier work.

Sequence of DOR (P32300 whole entry): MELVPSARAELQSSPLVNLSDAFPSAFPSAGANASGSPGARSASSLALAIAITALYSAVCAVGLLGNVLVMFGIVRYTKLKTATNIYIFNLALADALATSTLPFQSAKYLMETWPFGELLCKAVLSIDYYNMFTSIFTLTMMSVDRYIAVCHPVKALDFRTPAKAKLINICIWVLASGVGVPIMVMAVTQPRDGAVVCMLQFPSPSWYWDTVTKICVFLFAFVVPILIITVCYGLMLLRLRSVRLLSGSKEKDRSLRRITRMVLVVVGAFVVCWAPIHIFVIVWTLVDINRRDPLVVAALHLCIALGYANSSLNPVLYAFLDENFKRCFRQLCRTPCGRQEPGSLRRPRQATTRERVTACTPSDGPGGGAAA
Sequence of MOR (P42866 whole entry): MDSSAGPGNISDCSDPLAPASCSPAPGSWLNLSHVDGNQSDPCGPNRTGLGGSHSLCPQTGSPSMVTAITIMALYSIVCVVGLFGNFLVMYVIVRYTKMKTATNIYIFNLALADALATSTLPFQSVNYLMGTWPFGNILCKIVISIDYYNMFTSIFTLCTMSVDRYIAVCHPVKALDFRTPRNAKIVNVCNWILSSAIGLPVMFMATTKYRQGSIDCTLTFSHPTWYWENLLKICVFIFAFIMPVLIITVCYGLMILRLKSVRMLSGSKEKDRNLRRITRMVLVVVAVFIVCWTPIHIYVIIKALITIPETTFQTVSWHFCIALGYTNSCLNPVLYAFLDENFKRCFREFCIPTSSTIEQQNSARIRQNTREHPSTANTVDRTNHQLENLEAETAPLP

As to `CN(C(=O)/C=C/c1ccoc1)[C@@H]1CC[C@@]2(O)[C@H]3Cc4ccc(O)c5c4[C@@]2(CCN3CC2CC2)[C@H]1O5.Cl` [Compound 11, (2E)-N-[6β-17-(Cyclopropylmethyl)-3,14-dihydroxy-4,5α-epoxy-morphinan-6-yl]-3-(3-furanyl)-N-methyl-2-propenamide hydrochloride], the Duration of antinociception entry in the series on mice [1] (0.1 mg/kg s.c.) was “approximately 3 hours”. The “Calculated ED90 of antinociception” value in the series on mice [1] (s.c.) is 0.1 mg/kg. Moreover, in the series with mice [1] (s.c., 20 min after injection), the “Antinociception potency ED50 (95% CL)” value was 0.037 (0.014 - 0.096) mg/kg. Besides, the “Time of peak antinociceptive effect” value in the series on mice [1] (time-course study, s.c.) is “around 0.5 h”. The “Effects on respiration (frequency, minute volume, tidal volume)” value in the series with mice [2] was “no significant effects on the respiration”. Moreover, the “Reinforcing effect in self-administration (number of infusions vs saline)” value with rats is listed as “non-reinforcer”. Moreover, the “B-A Permeability” value in the series on Caco-2 cell monolayer was 31.8 ± 0.8 x10^−6 cm/s. In addition, in the series on mice [3] (0.1 mg/kg or 0.5 mg/kg s.c.), the “Activity-reducing (sedative) effects on locomotor activity” value is “no significant activity-reducing effects”. In addition, the “Hyperactivity in locomotor activity test” value in the series on mice [3] (s.c.) was “no significant hyperactivity”. Moreover, in the series with mice [4], the “Antinociceptive effect in morphine-tolerated mice (cross tolerance)” value is on record as “retained a higher antinociceptive effect than morphine”.
Consider `CN(C(=O)/C=C/c1ccoc1)[C@@H]1CC[C@@]2(O)[C@H]3Cc4ccc(O)c5c4[C@@]2(CCN3CC2CC2)[C@H]1O5` [Compound 12, (2E)-N-[6β-17-(Cyclopropylmethyl)-3,14-dihydroxy-4,5α-epoxy-morphinan-6-yl]-3-(3-furanyl)-N-methyl-2-propenamide hydrochloride], for which the “DOR %Emax” value on DOR (%Emax = 100 defined using 5 μM SNC80, mean ± SEM) is “moderate-to-high efficacy”. In addition, the maximal effect (Emax) came to 65.7 ± 6.4% at DOR (read-out: DOR %Emax) and 30.3 ± 3.7% on MOR. The “Antinociceptive effect in morphine-tolerated mice” value in the series with mice [5] is on record as “retained its antinociceptive effect”. In addition, the Action time in series [6] was 3 to 4 h; in series [7], “less than 2 hours”. Also, the Respiratory depression entry with monkeys was “did not induced respiratory depression”.
